According to PMC5893615, “Inhibition of homoserine dehydrogenase by formation of a cysteine-NAD covalent complex” (Scientific Reports, 2018):
One block for each molecule: values may come before it.

Columns and labels:
[1] = target: T1, Homoserine dehydrogenase (StHSD) (Sulfurisphaera tokodaii, UniProt F9VNG5); experiment: product inhibition kinetics of homoserine oxidation (double reciprocal plots); type: biochemical
T1 construct: gene hom

[2] = target: T1, Homoserine dehydrogenase (StHSD); experiment: crystal structure with cysteine at […] Å; steady-state kinetics (apparent Km); type: biochemical; conditions: cited from earlier work
[3] = target: T1, Homoserine dehydrogenase (StHSD); experiment: crystal structure with NAD at […] Å; Ki from Dixon plots of homoserine oxidation by purified enzyme; difference UV spectrum; type: biochemical
[4] = target: T1, Homoserine dehydrogenase (StHSD); experiment: initial velocity and product inhibition kinetics of NAD-dependent oxidation by purified enzyme; type: biochemical
[5] = substrate: NC(=O)c1ccc[n+]([C@@H]2O[C@H](COP(=O)([O-])OP(=O)(O)OC[C@H]3O[C@@H](n4cnc5c(N)ncnc54)[C@H](OP(=O)(O)O)[C@@H]3O)[C@@H](O)[C@H]2O)c1; experiment: steady-state kinetics of purified enzyme (apparent Km); type: biochemical, Sulfurisphaera tokodaii; conditions: Phe49 could exclude the C2′ phosphate group of NADP; varied: cofactor

Molecule: NC(=O)C1=CN([C@@H]2O[C@H](COP(=O)(O)OP(=O)(O)OC[C@H]3O[C@@H](n4cnc5c(N)ncnc54)[C@H](O)[C@@H]3O)[C@@H](O)[C@H]2O)C=CC1 [NADH]
product inhibition kinetics of homoserine oxidation (double reciprocal plots) [1]: which suggests that NADH acts as a competitive inhibitor of NAD

Molecule: NC(=O)c1ccc[n+]([C@@H]2O[C@H](COP(=O)([O-])OP(=O)(O)OC[C@H]3O[C@@H](n4cnc5c(N)ncnc54)[C@H](O)[C@@H]3O)[C@@H](O)[C@H]2O)c1 [NAD]
Km [2]: 330 µM

Ki [3]: 11 µM
Molecule: N[C@@H](CS)C(=O)O [cysteine]

Molecule: N[C@@H](CCO)C(=O)O [homoserine]
initial velocity and product inhibition kinetics of NAD-dependent oxidation by p [4]: NAD binds to the free form of the enzyme, after which homoserine binds to the enzyme-NAD complex

B1: Homoserine dehydrogenase (StHSD) (Sulfurisphaera tokodaii str. 7) (protein)
chain: MKLLLFGYGNVGKAFRKLLHEKRSPELNDVIIGGIVTRRGIMLQDKEDFTPDLEGDVFKAFEKIKPDIIVDVSSANYNNGEPSLSLYKEAIKDGVNIITTNKAPLALAFNEIFSLARSKGVKIGFQGTVMSGTPSINLYRVLPGSRVIKIRGILNGTTNFILTLMNKGVSFEEALKEAQRRGYAEEDPTLDINGFDAAAKITILANFMIGNSVTIKDVKFEGINRDLPKNEKIKLIAYADEKEVWVKPLPISQDDPLYNVDGVENALEITTDIQSILIRGPGAGPVNAAYGALSDLILLKRDCL
Km [5]: 1200 µM
